Measurements as given in ChEMBL document CHEMBL1908284, “Rational use of in vitro P-glycoprotein assays in drug discovery” (J Pharmacol Exp Ther, 2001).

Columns and labels:
[1] = target: T1, ATP-dependent translocase ABCB1 (Homo sapiens, UniProt P08183); settings: dog;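 for Ratio ATPase activity: Compound-stimulated ATPase activity measured in membrane preparations of MDR1-expressing Sf9 cells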
Description: (§1) Apparent permeability (Papp) from apical to basolateral side determined in MDR1-MDCKII cells

[2] = target: T1, ATP-dependent translocase ABCB1; settings: dog; remark: listed apart in the source
Description: (§2) Apparent permeability (Papp) from basolateral to apical side determined in MDR1-MDCKII cells

[3] = target: T2, ATP-dependent translocase ABCB1 (MDR1) (Homo sapiens, UniProt P08183); experiment: in vitro; settings: dog
Description: as §1

[4] = target: T2, ATP-dependent translocase ABCB1 (MDR1); experiment: in vitro; settings: dog; remark: listed apart in the source
Description: as §2

[5] = target: T1, ATP-dependent translocase ABCB1; settings: spodoptera frugiperda, sf9, 20 µM
Description: Drug-stimulated Pgp ATPase activity ratio determined in MDR1-Sf9 cell membranes with test compound at a concentration of 20uM

[6] = target: T2, ATP-dependent translocase ABCB1 (MDR1); experiment: in vitro; settings: dog; remark: listed apart in the source
Description: Ratio of apparent permeability from basolateral to apical side over apical to basolateral side determined in MDR1-MDCKII cells

[7] = target: T1, ATP-dependent translocase ABCB1; experiment: TP_TRANSPORTER: ATP hydrolysis in MDR1-expressing Sf9 cells; type: functional

T1 sequence (P08183 whole entry): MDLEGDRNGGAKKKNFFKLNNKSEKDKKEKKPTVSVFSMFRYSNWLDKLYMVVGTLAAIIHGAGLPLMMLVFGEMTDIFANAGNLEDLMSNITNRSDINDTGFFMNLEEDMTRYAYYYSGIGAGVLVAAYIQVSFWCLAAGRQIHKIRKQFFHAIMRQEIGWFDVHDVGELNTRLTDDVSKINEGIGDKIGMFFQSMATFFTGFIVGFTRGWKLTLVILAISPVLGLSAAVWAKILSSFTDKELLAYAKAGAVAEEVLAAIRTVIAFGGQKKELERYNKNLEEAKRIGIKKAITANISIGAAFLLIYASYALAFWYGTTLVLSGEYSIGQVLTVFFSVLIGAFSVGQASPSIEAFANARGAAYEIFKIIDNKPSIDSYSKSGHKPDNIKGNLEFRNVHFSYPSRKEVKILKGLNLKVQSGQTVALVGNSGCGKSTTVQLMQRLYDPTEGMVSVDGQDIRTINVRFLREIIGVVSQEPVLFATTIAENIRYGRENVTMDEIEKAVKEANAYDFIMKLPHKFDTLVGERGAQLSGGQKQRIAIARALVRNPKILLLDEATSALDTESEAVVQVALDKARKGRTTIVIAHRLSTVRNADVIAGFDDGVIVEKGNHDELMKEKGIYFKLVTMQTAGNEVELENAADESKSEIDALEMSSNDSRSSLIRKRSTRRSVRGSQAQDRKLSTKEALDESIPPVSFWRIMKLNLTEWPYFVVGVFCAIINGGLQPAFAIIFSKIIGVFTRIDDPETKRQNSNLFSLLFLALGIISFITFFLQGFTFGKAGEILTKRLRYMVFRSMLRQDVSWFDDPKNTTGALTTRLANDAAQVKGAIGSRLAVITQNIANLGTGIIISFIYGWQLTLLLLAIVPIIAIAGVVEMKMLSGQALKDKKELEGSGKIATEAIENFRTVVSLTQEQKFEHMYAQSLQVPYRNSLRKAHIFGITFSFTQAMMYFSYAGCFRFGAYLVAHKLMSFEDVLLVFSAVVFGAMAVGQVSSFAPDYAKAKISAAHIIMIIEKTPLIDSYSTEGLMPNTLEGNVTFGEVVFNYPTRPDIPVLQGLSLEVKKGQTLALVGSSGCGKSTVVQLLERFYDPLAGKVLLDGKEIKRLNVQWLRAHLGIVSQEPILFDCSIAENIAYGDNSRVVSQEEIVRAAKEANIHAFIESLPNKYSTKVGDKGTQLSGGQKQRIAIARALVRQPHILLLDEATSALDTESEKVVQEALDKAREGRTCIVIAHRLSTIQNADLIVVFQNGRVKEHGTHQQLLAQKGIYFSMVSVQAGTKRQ
T2 sequence (P08183 whole entry): as above

| SMILES | Papp ([1]; mdr1-mdckii) [nm/s] | Papp ([2]; mdr1-mdckii) [nm/s] | Papp A→B ([3]; MDCK-MDR1, Papp) [×10⁻⁶ cm/s] | Papp B→A ([4]; MDCK-MDR1, Papp) [×10⁻⁶ cm/s] | Ratio_ATPase activity [5] | efflux ratio ([6]; MDCK-MDR1, Ratio_Papp) | Activity [7] | Papp A→B ([3]; MDCK-MDR1) [×10⁻⁶ cm/s] | Papp B→A ([4]; MDCK-MDR1) [×10⁻⁶ cm/s] | efflux ratio ([6]; MDCK-MDR1) | Papp ([1]; MDCK-MDR1) [nm/s] | Papp ([2]; MDCK-MDR1) [nm/s] |
| --- | --- | --- | --- | --- | --- | --- | --- | --- | --- | --- | --- | --- |
| CC(C)CN(C[C@@H](O)[C@H](Cc1ccccc1)NC(=O)O[C@H]1CCOC1)S(=O)(=O)c1ccc(N)cc1 | 21.7 | 703 | 3.73 | 98.7 |  |  |  |  |  |  |  |  |
| OC[C@@H](O)[C@@H](O)[C@H](O)[C@H](O)CO [MANNITOL] | 11.3 | 9.15 | 1.13 | 0.915 | 1.25 | 0.82 |  |  |  |  |  |  |
| Cc1ncc2n1-c1ccc(Cl)cc1C(c1ccccc1F)=NC2 [MIDAZOLAM] |  |  |  |  | 3.82 |  | substrate [+] | 70.1 | 56.4 | 0.81 |  |  |
| CN(C)C(=O)Oc1cccc([N+](C)(C)C)c1.[Br-] [NEOSTIGMINE BROMIDE] |  |  |  |  | 1.06 |  | is not a substrate [-] | 0.758 | 1.37 | 1.81 |  |  |
| COC(=O)C1=C(C)NC(C)=C(C(=O)OCCN(C)Cc2ccccc2)C1c1cccc([N+](=O)[O-])c1 (stereo unspecified) [NICARDIPINE] |  |  | 61.4 | 66.1 | 5.39 | 1.08 | substrate [+] |  |  |  |  |  |
| CCOC(=O)C1=C(C)NC(C)=C(C(=O)OC)C1c1cccc([N+](=O)[O-])c1 (stereo unspecified) [NITRENDIPINE] |  |  | 60.4 | 48.3 | 3.22 | 0.8 | substrate [+] |  |  |  |  |  |
| CC(=O)O[C@H]1C(=O)[C@@]2(C)[C@H]([C@H](OC(=O)c3ccccc3)[C@]3(O)C[C@H](OC(=O)[C@H](O)[C@@H](NC(=O)c4ccccc4)c4ccccc4)C(C)=C1C3(C)C)[C@]1(OC(C)=O)CO[C@@H]1C[C@@H]2O [PACLITAXEL] |  |  | < 0.125 | 13.5 | 2.63 | > 108 | substrate [+] |  |  |  |  |  |
| CC(C)NCC(O)COc1cccc2ccccc12 (stereo unspecified) [PROPRANOLOL] |  |  | 49.6 | 51.4 | 1.33 | 1.04 |  |  |  |  | 496 | 514 |
| COc1ccc(C[C@H](N)C(=O)N[C@H]2[C@@H](O)[C@H](n3cnc4c(N(C)C)ncnc43)O[C@@H]2CO)cc1 [PUROMYCIN] |  |  | 1.15 | 3.56 | 1.21 | 3.1 | is not a substrate [-] |  |  |  |  |  |
| COc1cc(Cc2cnc(N)nc2N)cc(OC)c1OC [TRIMETHOPRIM] |  |  | 7.39 | 26.7 | 3.61 | 3.61 | substrate [+] |  |  |  |  |  |
| CC[C@]1(O)C[C@H]2CN(CCc3c([nH]c4ccccc34)[C@@](C(=O)OC)(c3cc4c(cc3OC)N(C=O)[C@H]3[C@@](O)(C(=O)OC)[C@H](OC(C)=O)[C@]5(CC)C=CCN6CC[C@]43[C@@H]65)C2)C1 [VINCRISTINE] |  |  | 0.236 | 1.49 | 1.46 | 6.31 | is not a substrate [-] |  |  |  |  |  |
| CCC1=C[C@@H]2CN(C1)Cc1c([nH]c3ccccc13)[C@@](C(=O)OC)(c1cc3c(cc1OC)N(C)[C@H]1[C@@](O)(C(=O)OC)[C@H](OC(C)=O)[C@]4(CC)C=CCN5CC[C@]31[C@@H]54)C2 [VINORELBINE] |  |  | 0.252 | 17.6 | 1.15 | 69.8 | is not a substrate [-] |  |  |  |  |  |
